Publication PMC4066754 (2014)

What was measured:
[1] = test system: template 8ggg:primer + downstream-binding oligonucleotide (DNA, duplex, 3'-amino-2',3'-dideoxynucleoside at primer 3' end) CTGGATTTCCTCAGGGGCGTGCG/CGCACGC/CCTGAGGAAATCCA; assay: inhibition of enzyme-free primer extension (MALDI-ToF kinetics); settings: 400 mM NaCl, 80 mM MgCl2; 200 mM HEPES, pH 8.9, 20°C; competes with 3.6 mM dCMP-OAt; calculated from Kinh
[2] = test system: hairpin 2g (DNA, hairpin, hexaethylene glycol (HEG) loop linker between 4 and 5) GTGCGCA; assay: 1H NMR titration; settings: 400 mM NaCl, 80 mM MgCl2; 200 mM phosphate in D2O, pH 8.9, 20°C, 0.5 mM hairpin
[3] = test system: hairpin 4t (DNA, hairpin, hexaethylene glycol (HEG) loop linker between 4 and 5) TCAGCTG; assay: 1H NMR titration; settings: 400 mM NaCl, 80 mM MgCl2, 200 mM phosphate in D2O, pH 8.9, 20°C, 0.5 mM hairpin
[4] = test system: template 8cgc:primer + downstream-binding oligonucleotide (DNA, duplex, 3'-amino-2',3'-dideoxynucleoside at primer 3' end) CTGGATTTCCTCAGCGCCGTGCG/CGCACGG/GCTGAGGAAATCCA; assay: inhibition of enzyme-free primer extension (MALDI-ToF kinetics); settings: 400 mM NaCl, 80 mM MgCl2; 200 mM HEPES, pH 8.9, 20°C; competes with 3.6 mM dCMP-OAt; calculated from Kinh
[5] = test system: template 8aga:primer + downstream-binding oligonucleotide (DNA, duplex, 3'-amino-2',3'-dideoxynucleoside at primer 3' end) CTGGATTTCCTCAGAGACGTGCG/CGCACGT/TCTGAGGAAATCCA; assay: as above; settings: 400 mM NaCl, 80 mM MgCl2; 200 mM HEPES, pH 8.9, 20°C; competes with 3.6 mM dCMP-OAt; calculated from Kinh
[6] = test system: template 8tgt:primer, no downstream-binding oligonucleotide (DNA, duplex, 3'-amino-2',3'-dideoxynucleoside at primer 3' end) CTGGATTTCCTCAGTGTCGTGCG/CGCACGA; assay: as above; settings: 400 mM NaCl, 80 mM MgCl2; 200 mM HEPES, pH 8.9, 20°C; competes with 3.6 mM dCMP-OAt; calculated from Kinh
[7] = test system: template 8tgt:primer + downstream-binding oligonucleotide (DNA, duplex, 3'-amino-2',3'-dideoxynucleoside at primer 3' end) CTGGATTTCCTCAGTGTCGTGCG/CGCACGA/ACTGAGGAAATCCA; assay: as above; settings: 400 mM NaCl, 80 mM MgCl2; 200 mM HEPES, pH 8.9, 20°C; competes with 3.6 mM dCMP-OAt; calculated from Kinh
[8] = test system: template 8cgc:primer, no downstream-binding oligonucleotide (DNA, duplex, 3'-amino-2',3'-dideoxynucleoside at primer 3' end) CTGGATTTCCTCAGCGCCGTGCG/CGCACGG; assay: as above; settings: 400 mM NaCl, 80 mM MgCl2; 200 mM HEPES, pH 8.9, 10°C; competes with 3.6 mM dCMP-OAt; calculated from Kinh
[9] = test system: template 8tct:primer, no downstream-binding oligonucleotide (DNA, duplex, 3'-amino-2',3'-dideoxynucleoside at primer 3' end) CTGGATTTCCTCAGTCTCGTGCG/CGCACGA; assay: as above; settings: 400 mM NaCl, 80 mM MgCl2; 200 mM HEPES, pH 8.9, 20°C; competes with 3.6 mM dGMP-OAt; calculated from Kinh
[10] = test system: hairpin 3c (DNA, hairpin, hexaethylene glycol (HEG) loop linker between 6 and 7) CTCTGCGCA; assay: 1H NMR titration; settings: 400 mM NaCl, 80 mM MgCl2; 200 mM phosphate in D2O, pH 8.9, 20°C, 0.5 mM hairpin
[11] = test system: template 8ccc:primer, no downstream-binding oligonucleotide (DNA, duplex, 3'-amino-2',3'-dideoxynucleoside at primer 3' end) CTGGATTTCCTCAGCCCCGTGCG/CGCACGG; assay: inhibition of enzyme-free primer extension (MALDI-ToF kinetics); settings: 400 mM NaCl, 80 mM MgCl2; 200 mM HEPES, pH 8.9, 10°C; competes with 3.6 mM dGMP-OAt; calculated from Kinh
[12] = test system: template 8aca:primer + downstream-binding oligonucleotide (DNA, duplex, 3'-amino-2',3'-dideoxynucleoside at primer 3' end) CTGGATTTCCTCAGACACGTGCG/CGCACGT/TCTGAGGAAATCCA; assay: as above; settings: 400 mM NaCl, 80 mM MgCl2; 200 mM HEPES, pH 8.9, 20°C; competes with 3.6 mM dGMP-OAt; calculated from Kinh
[13] = test system: template 8tct:primer + downstream-binding oligonucleotide (DNA, duplex, 3'-amino-2',3'-dideoxynucleoside at primer 3' end) CTGGATTTCCTCAGTCTCGTGCG/CGCACGA/ACTGAGGAAATCCA; assay: as above; settings: 400 mM NaCl, 80 mM MgCl2; 200 mM HEPES, pH 8.9, 20°C; competes with 3.6 mM dGMP-OAt; calculated from Kinh
[14] = test system: template 8ccc:primer + downstream-binding oligonucleotide (DNA, duplex, 3'-amino-2',3'-dideoxynucleoside at primer 3' end) CTGGATTTCCTCAGCCCCGTGCG/CGCACGG/GCTGAGGAAATCCA; assay: as above; settings: 400 mM NaCl, 80 mM MgCl2; 200 mM HEPES, pH 8.9, 20°C; competes with 3.6 mM dGMP-OAt; calculated from Kinh
[15] = test system: template 8gcg:primer + downstream-binding oligonucleotide (DNA, duplex, 3'-amino-2',3'-dideoxynucleoside at primer 3' end) CTGGATTTCCTCAGGCGCGTGCG/CGCACGC/CCTGAGGAAATCCA; assay: as above; settings: 400 mM NaCl, 80 mM MgCl2; 200 mM HEPES, pH 8.9, 20°C; competes with 3.6 mM dGMP-OAt; calculated from Kinh
[16] = test system: hairpin 2c (DNA, hairpin, hexaethylene glycol (HEG) loop linker between 4 and 5) CTGCGCA; assay: 1H NMR titration; settings: 400 mM NaCl, 80 mM MgCl2; 200 mM phosphate in D2O, pH 8.9, 20°C, 0.5 mM hairpin
[17] = test system: template 8ttt:primer + downstream-binding oligonucleotide (DNA, duplex, 3'-amino-2',3'-dideoxynucleoside at primer 3' end) CTGGATTTCCTCAGTTTCGTGCG/CGCACGA/ACTGAGGAAATCCA; assay: inhibition of enzyme-free primer extension (MALDI-ToF kinetics); settings: 400 mM NaCl, 80 mM MgCl2; 200 mM HEPES, pH 8.9, 20°C; competes with 3.6 mM dAMP-OAt; calculated from Kinh
[18] = test system: template 8ata:primer + downstream-binding oligonucleotide (DNA, duplex, 3'-amino-2',3'-dideoxynucleoside at primer 3' end) CTGGATTTCCTCAGATACGTGCG/CGCACGT/TCTGAGGAAATCCA; assay: as above; settings: 400 mM NaCl, 80 mM MgCl2; 200 mM HEPES, pH 8.9, 20°C; competes with 3.6 mM dAMP-OAt; calculated from Kinh
[19] = test system: template 8ctc:primer + downstream-binding oligonucleotide (DNA, duplex, 3'-amino-2',3'-dideoxynucleoside at primer 3' end) CTGGATTTCCTCAGCTCCGTGCG/CGCACGG/GCTGAGGAAATCCA; assay: as above; settings: 400 mM NaCl, 80 mM MgCl2; 200 mM HEPES, pH 8.9, 20°C; competes with 3.6 mM dAMP-OAt; calculated from Kinh
[20] = test system: template 8ttt:primer, no downstream-binding oligonucleotide (DNA, duplex, 3'-amino-2',3'-dideoxynucleoside at primer 3' end) CTGGATTTCCTCAGTTTCGTGCG/CGCACGA; assay: as above; settings: 400 mM NaCl, 80 mM MgCl2; 200 mM HEPES, pH 8.9, 20°C; competes with 3.6 mM dAMP-OAt; calculated from Kinh
[21] = test system: template 8ctc:primer, no downstream-binding oligonucleotide (DNA, duplex, 3'-amino-2',3'-dideoxynucleoside at primer 3' end) CTGGATTTCCTCAGCTCCGTGCG/CGCACGG; assay: as above; settings: 400 mM NaCl, 80 mM MgCl2; 200 mM HEPES, pH 8.9, 10°C; competes with 3.6 mM dAMP-OAt; calculated from Kinh
[22] = test system: template 8gtg:primer + downstream-binding oligonucleotide (DNA, duplex, 3'-amino-2',3'-dideoxynucleoside at primer 3' end) CTGGATTTCCTCAGGTGCGTGCG/CGCACGC/CCTGAGGAAATCCA; assay: as above; settings: 400 mM NaCl, 80 mM MgCl2; 200 mM HEPES, pH 8.9, 20°C; competes with 3.6 mM dAMP-OAt; calculated from Kinh
[23] = test system: template 8tat:primer + downstream-binding oligonucleotide (DNA, duplex, 3'-amino-2',3'-dideoxynucleoside at primer 3' end) CTGGATTTCCTCAGTATCGTGCG/CGCACGA/ACTGAGGAAATCCA; assay: as above; settings: 400 mM NaCl, 80 mM MgCl2; 200 mM HEPES, pH 8.9, 20°C; competes with 7.2 mM TMP-OAt; calculated from Kinh
[24] = test system: template 8cac:primer, no downstream-binding oligonucleotide (DNA, duplex, 3'-amino-2',3'-dideoxynucleoside at primer 3' end) CTGGATTTCCTCAGCACCGTGCG/CGCACGG; assay: as above; settings: 400 mM NaCl, 80 mM MgCl2; 200 mM HEPES, pH 8.9, 10°C; competes with 7.2 mM TMP-OAt; calculated from Kinh
[25] = test system: template 8cac:primer + downstream-binding oligonucleotide (DNA, duplex, 3'-amino-2',3'-dideoxynucleoside at primer 3' end) CTGGATTTCCTCAGCACCGTGCG/CGCACGG/GCTGAGGAAATCCA; assay: as above; settings: 400 mM NaCl, 80 mM MgCl2; 200 mM HEPES, pH 8.9, 20°C; competes with 7.2 mM TMP-OAt; calculated from Kinh
[26] = test system: template 8tat:primer, no downstream-binding oligonucleotide (DNA, duplex, 3'-amino-2',3'-dideoxynucleoside at primer 3' end) CTGGATTTCCTCAGTATCGTGCG/CGCACGA; assay: as above; settings: 400 mM NaCl, 80 mM MgCl2; 200 mM HEPES, pH 8.9, 20°C; competes with 7.2 mM TMP-OAt; calculated from Kinh
[27] = test system: template 8gag:primer + downstream-binding oligonucleotide (DNA, duplex, 3'-amino-2',3'-dideoxynucleoside at primer 3' end) CTGGATTTCCTCAGGAGCGTGCG/CGCACGC/CCTGAGGAAATCCA; assay: as above; settings: 400 mM NaCl, 80 mM MgCl2; 200 mM HEPES, pH 8.9, 20°C; competes with 7.2 mM TMP-OAt; calculated from Kinh
[28] = test system: hairpin 2a (DNA, hairpin, hexaethylene glycol (HEG) loop linker between 4 and 5) ATGCGCA; assay: 1H NMR titration; settings: 400 mM NaCl, 80 mM MgCl2; 200 mM phosphate in D2O, pH 8.9, 20°C, 0.5 mM hairpin
[29] = test system: hairpin 4a (DNA, hairpin, hexaethylene glycol (HEG) loop linker between 4 and 5) ACAGCTG; assay: 1H NMR titration; settings: 400 mM NaCl, 80 mM MgCl2; 200 mM phosphate in D2O, pH 8.9, 20°C, 0.5 mM hairpin
[30] = test system: template 8aaa:primer + downstream-binding oligonucleotide (DNA, duplex, 3'-amino-2',3'-dideoxynucleoside at primer 3' end) CTGGATTTCCTCAGAAACGTGCG/CGCACGT/TCTGAGGAAATCCA; assay: inhibition of enzyme-free primer extension (MALDI-ToF kinetics); settings: 400 mM NaCl, 80 mM MgCl2; 200 mM HEPES, pH 8.9, 20°C; competes with 7.2 mM TMP-OAt; calculated from Kinh
[31] = test system: hairpin 3a (DNA, hairpin, hexaethylene glycol (HEG) loop linker between 6 and 7) CTATGCGCA; assay: 1H NMR titration; settings: 400 mM NaCl, 80 mM MgCl2; 200 mM phosphate in D2O, pH 8.9, 20°C, 0.5 mM hairpin
[32] = test system: RNA hairpin 6c (RNA, hairpin, hexaethylene glycol (HEG) loop linker between 4 and 5) CCAGCUG; assay: 1H NMR titration; settings: 400 mM NaCl, 80 mM MgCl2; 200 mM phosphate in D2O, pH 7, 20°C, 2 mM hairpin

Question: What does the source list for `Nc1ccn([C@H]2C[C@H](O)[C@@H](COP(=O)(O)O)O2)c(=O)n1`?
Answer: Kd [1]: 18 mM; Kd [2]: 40 mM; Kd ([3]; no saturation up to 1 M dCMP): > ≥2000 mM; Kd [4]: 6 mM; Kd [5]: 15 mM; Kd [6]: 19 mM; Kd [7]: 5 mM; Kd [8]: 30 mM

Question: For `Nc1nc2c(ncn2[C@H]2C[C@H](O)[C@@H](COP(=O)(O)O)O2)c(=O)[nH]1`, which Kd [9] is on record?
Answer: 15 mM

Question: And the Kd [10]?
Answer: 16 mM

Question: And the Kd [11]?
Answer: 5 mM

Question: And the Kd [3]?
Answer: 100 mM

Question: And the Kd [12]?
Answer: 5 mM

Question: What about the Kd [13] of the same molecule?
Answer: 2 mM

Question: What about the Kd [14] of the same molecule?
Answer: 7 mM

Question: What about the Kd [15] of the same molecule?
Answer: 10 mM

Question: And the Kd [16]?
Answer: 9.9 ± 0.9 mM

Question: With `Nc1ncnc2c1ncn2[C@H]1C[C@H](O)[C@@H](COP(=O)(O)O)O1` as the molecule, how does the Kd [17] read?
Answer: 5 mM

Question: And the Kd [18]?
Answer: 5 mM

Question: And the Kd [3]?
Answer: 38 mM

Question: What about the Kd [19] of the same molecule?
Answer: 7 mM

Question: What about the Kd [20] of the same molecule?
Answer: 17 mM

Question: What about the Kd [21] of the same molecule?
Answer: 7 mM

Question: What about the Kd [22] of the same molecule?
Answer: 5 mM

Question: What does the source list for `Cc1cn([C@H]2C[C@H](O)[C@@H](COP(=O)(O)O)O2)c(=O)[nH]c1=O`?
Answer: Kd [23]: 59 mM; Kd [24]: 144 mM; Kd [25]: 113 mM; Kd [26]: 200 mM; Kd [27]: 83 mM; Kd [28]: 261 ± 47 mM; Kd [29]: 241 ± 12 mM; Kd [30]: 77 mM; Kd [31]: 284 ± 44 mM

Question: With `Nc1nc2c(ncn2[C@@H]2O[C@H](COP(=O)(O)O)[C@@H](O)[C@H]2O)c(=O)[nH]1` as the molecule, how does the Kd [32] read?
Answer: 14 mM
